Test results reported in patent US11628146B2, “Estrogen receptor ligand treatment for neurodegenerative diseases” (The Regents of the University of California, priority 2014, dated 2023).
Entries after “also recorded” stand apart in the source; their conditions may differ.

System: EAE in C57BL/6 mice
Test: Standard EAE clinical score (0-5 scale), MOG 35-55 induced EAE, C57BL/6 mice
Type: in vivo, mouse
Set-up: key to Standard EAE Score: n.s. = not significant; *p < 0.05; ***p = 0.0004; ****p < 0.0001; n.i. = not informative
Conditions: for Standard EAE Score: significance vs vehicle; for Standard EAE clinical score: vs miglyol vehicle
From the text: Animals. C57BL/6 and NOD mice 8 weeks old were purchased from Jackson Laboratories (Bar Harbor, Me.). Animals were maintained under environmentally controlled conditions in a 12-hour light/dark cycle with access to food and water ad libitum. All procedures were done in accordance with the guidelines of the National Institutes of Health and the Chancellor's Animal Research Committee of the University of California, Los Angeles Office for the Protection of Research Subjects.
Reagents. AC-186 was dissolved in either Miglyol 812N liquid oil (Sasol North America) or sesame oil (Sigma Aldrich) as following concentration; 1.5 mg/mL for 3 mg/kg group, 5 mg/mL for 10 mg/kg group, and 15 mg/mL for 30 mg/kg group. Diarylpropionitrile (DPN, Tocris Biosciences) was dissolved in 10% molecular-grade ethanol and diluted with 90% of either Miglyol 812N liquid oil or sesame oil.
EAE and Treatments. Animals were injected subcutaneously with Myelin Oligodendrocyte Glycoprotein (MOG), amino acids 35-55 (200 μg/animal, American Peptides), emulsified in complete Freund's adjuvant (CFA) and supplemented with Mycobacterium tuberculosis H37ra (300 μg/animal, Difco Laboratories), over two sites drained by left inguinal and auxiliary lymph nodes in a total volume of 0.1 ml/mouse. One week later, a booster immunization was delivered over contra lateral lymph nodes. Pertussis toxin (500 ng/mouse) (List Biological Laboratories, Inc.) was injected intraperitoneally on days 0 and 2. Animals were monitored daily for EAE signs based on a standard EAE 0-5 scale scoring system: 0—healthy, 1—complete loss of tail tonicity, 2—loss of righting reflex, 3—partial paralysis, 4—complete paralysis of one or both hind limbs, and 5—moribund. Animals received 0.05 ml of either of 1.5, 5, 15 mg/mL AC-186, vehicle (sesame oil or Miglyol 812N liquid oil), or DPN (8 mg/kg/day) via subcutaneous injections every other day. Animals were treated with AC-186 or vehicle after EAE induction. Specifically, treatment was initiated at the first clear signs of clinical disease (EAE day 13-15), and continued to the endpoint of the experiment.

In the case of `Oc1ccc(C2(c3ccccc3F)CCC(F)(F)CC2)cc1` [AC-186], the “Standard EAE Score” value (C57BL/6 F, AC186 3 mg/kg, sesame vehicle) is reported as “n.s”, the “Standard EAE Score” value (C57BL/6 F, AC186 10 mg/kg, miglylol vehicle) is reported as “**** (less robust that 30 mg/kg) (****p < 0.0001)” and the “Standard EAE Score” value (C57BL/6 F, AC186 10 mg/kg, sesame vehicle) is reported as “n.s”. The “Standard EAE Score” value (C57BL/6 F, AC186 30 mg/kg, miglylol vehicle) was “**** (****p < 0.0001)”, the “Standard EAE Score” value (C57BL/6 F, AC186 30 mg/kg, sesame vehicle) was “* (*p < 0.05)” and the “Standard EAE Score” value (C57BL/6 M, AC186 30 mg/kg, miglylol vehicle) was “**** (****p < 0.0001)”. The “Standard EAE Score” value (C57BL/6 M, AC186 30 mg/kg, sesame vehicle) was “n.s”, the EAE score (female C57BL/6, 3 mg/kg s.c. every other day in sesame oil, vs vehicle) was “no effect on the EAE score” and the “Standard EAE clinical score” value (female C57BL/6, 10 mg/kg in miglyol) was “significant efficacy in ameliorating the standard EAE clinical scores; also recorded: ameliorated”. The EAE score (female C57BL/6, 10 mg/kg s.c. every other day in sesame oil, vs vehicle) was “a trend toward improvement”, the “Standard EAE clinical score” value (female C57BL/6, 30 mg/kg in miglyol) was “significant efficacy in ameliorating the standard EAE clinical scores; also recorded: beneficial effects; also recorded: ameliorated” and the EAE score (female C57BL/6, 30 mg/kg s.c. every other day in sesame oil, from first clinical signs, vs vehicle) was “a significant effect in ameliorating standard EAE clinical scores; also recorded: displayed the best EAE score; also recorded: significantly less severe EAE scores”. The EAE score (male C57BL/6, 30 mg/kg in miglyol, vs miglyol alone) was “performed significantly better; also recorded: better EAE scores” and the EAE score (male C57BL/6, 30 mg/kg in sesame oil, vs sesame oil alone) was “did not perform significantly better; also recorded: did not display efficacy”.
